Laboratory results: ChEMBL document CHEMBL4765489, “A FabG inhibitor targeting an allosteric binding site inhibits several orthologs from Gram-negative ESKAPE pathogens” (Bioorg Med Chem, 2021)
Calls of active or inactive are those of the source. The rule behind the calls is not given here.

Tests used:
[1] = Inhibition of Pseudomonas aeruginosa N-terminal His6-tagged FabG expressed in Escherichia coli BL21 (DE3) using AcAcCoA as substrate assessed as NADPH consumption measured for 6 to 10 mins in presence of NADPH by spectrophotometric analysis
[2] = Inhibition of Acinetobacter baumannii N-terminal His6-tagged FabG expressed in Escherichia coli BL21 (DE3) using AcAcCoA as substrate assessed as NADPH consumption measured for 6 to 10 mins in presence of NADPH by spectrophotometric analysis
[3] = Inhibition of Salmonella typhimurium N-terminal His6-tagged FabG expressed in Escherichia coli BL21 (DE3) using AcAcCoA as substrate assessed as NADPH consumption measured for 6 to 10 mins in presence of NADPH by spectrophotometric analysis; set-up: species or system Salmonella enterica subsp. enterica serovar Typhimurium
[4] = Inhibition of Klebsiella pneumoniae N-terminal His6-tagged FabG1 expressed in Escherichia coli BL21 (DE3) using AcAcCoA as substrate assessed as NADPH consumption measured for 6 to 10 mins in presence of NADPH by spectrophotometric analysis
[5] = Inhibition of Salmonella typhimurium N-terminal His6-tagged FabG expressed in Escherichia coli BL21 (DE3) using 3-OHdNAC as substrate assessed as NADPH formation incubated for 2 hrs in presence of NADP by spectrophotometric analysis; set-up: species or system Salmonella enterica subsp. enterica serovar Typhimurium
Escherichia coli = test: Allosteric binding affinity to Escherichia coli N-terminal His6-tagged FabG expressed in Escherichia coli BL21 (DE3) assessed as protein destabilization by measuring decrease in melting temperature at 1 mM incubated for 15 mins by Sypro orange dye based differential scanning fluorimetry
Klebsiella pneumoniae = test: Allosteric binding affinity to Klebsiella pneumoniae N-terminal His6-tagged FabG expressed in Escherichia coli BL21 (DE3) assessed as protein destabilization by measuring decrease in melting temperature at 1 mM incubated for 15 mins by Sypro orange dye based differential scanning fluorimetry
[6] = test system: Salmonella enterica subsp. enterica serovar Typhimurium; test: Allosteric binding affinity to Salmonella typhimurium N-terminal His6-tagged FabG expressed in Escherichia coli BL21 (DE3) assessed as protein destabilization by measuring decrease in melting temperature at 1 mM incubated for 15 mins by Sypro orange dye based differential scanning fluorimetry
[7] = Inhibition of Acinetobacter baumannii N-terminal His6-tagged FabG expressed in Escherichia coli BL21 (DE3) using 3-OHdNAC as substrate assessed as NADPH formation incubated for 2 hrs in presence of NADP by fluorescence based analysis
[8] = Inhibition of Escherichia coli N-terminal His6-tagged FabG expressed in Escherichia coli BL21 (DE3) using AcAcCoA as substrate assessed as NADPH consumption measured for 6 to 10 mins in presence of NADPH by spectrophotometric analysis
Acinetobacter baumannii [9] = test: Allosteric binding affinity to Acinetobacter baumannii N-terminal His6-tagged FabG expressed in Escherichia coli BL21 (DE3) assessed as melting temperature at 1 mM incubated for 15 mins by Sypro orange dye based differential scanning fluorimetry (reference value: 61.3 degreeC)
Acinetobacter baumannii [10] = test: Allosteric binding affinity to Acinetobacter baumannii N-terminal His6-tagged FabG expressed in Escherichia coli BL21 (DE3) assessed as reduction in NADPH bound protein fraction at 100 to 500 uM by fluorescence based analysis; details: dose 100-500 µM
[11] = Inhibition of Staphylococcus aureus N-terminal His6-tagged FabG expressed in Escherichia coli BL21 (DE3) using AcAcCoA as substrate assessed as NADPH consumption measured for 6 to 10 mins in presence of NADPH by spectrophotometric analysis
Pseudomonas aeruginosa = test: Allosteric binding affinity to Pseudomonas aeruginosa N-terminal His6-tagged FabG expressed in Escherichia coli BL21 (DE3) assessed as protein destabilization by measuring decrease in melting temperature at 1 mM incubated for 15 mins by Sypro orange dye based differential scanning fluorimetry
Staphylococcus aureus = test: Allosteric binding affinity to Staphylococcus aureus N-terminal His6-tagged FabG expressed in Escherichia coli BL21 (DE3) assessed as protein destabilization by measuring decrease in melting temperature at 1 mM incubated for 15 mins by Sypro orange dye based differential scanning fluorimetry

Row | SMILES | IC50 [1] [µM] | IC50 [2] [µM] | IC50 [3] [µM] | IC50 [4] [µM] | IC50 [5] [µM] | Activity (Escherichia coli) | Activity (Klebsiella pneumoniae) | Activity [6] | IC50 [7] [µM] | IC50 [8] [µM] | Tm (Acinetobacter baumannii [9]) [°C] | Activity (Acinetobacter baumannii [10]) | IC50 [11] [µM] | Activity (Pseudomonas aeruginosa) | Activity (Staphylococcus aureus)
1 | O=C(Nc1ccc(Br)cc1C(=O)O)c1cccs1 | 3.1 | 33.4 | 175 | 186 | 5.1 |  |  |  |  |  |  |  |  |  | 
2 | CCOC(=O)c1c(CN(C)C)n(-c2ccccc2)c2cc(Br)c(O)cc12 | 19.7 | 64 | 12 | 13.8 | 35 | Active | Active | Active | 0.36 | 7 | 58.5 | Active | 70.7 | Active | Active
3 | O=c1[nH]c(SCc2c(Cl)cccc2Cl)nc2ccnn12 | 30.9 |  | 150 | 137 | 22 |  |  |  |  | 19.9 |  |  |  |  | 
